ChEMBL document CHEMBL5303764, “Data for DCP probe BI-3812” (2023)

Columns and labels:
[1] = target: Endothelin-1 receptor (Homo sapiens) (UniProt P25101); assay: ETA/H Eurofins SafetyScreen44 (BI); conditions: Compound concentration 10.0 uM
[2] = target: 5-hydroxytryptamine receptor 2B (Homo sapiens) (UniProt P41595); assay: 5HT2B/H AG Eurofins SafetyScreen44 (BI); conditions: filed as agonist, Compound concentration 10.0 uM
[3] = target: Glutamate NMDA receptor (Rattus norvegicus) (UniProt P35439+Q00959+Q00960+Q00961+Q62645+Q8VHN2+Q9R1M7); assay: NMDA/R Eurofins SafetyScreen44 (BI); format: protein-complex assay; conditions: Compound concentration 10.0 uM
[4] = target: Histamine H2 receptor (Homo sapiens) (UniProt P25021); assay: H2/APT/HS Eurofins SafetyScreen44 (BI); conditions: filed as antagonist, Compound concentration 10.0 uM
[5] = target: Muscarinic acetylcholine receptor M2 (Homo sapiens) (UniProt P08172); assay: M2/H Eurofins SafetyScreen44 (BI); conditions: filed as antagonist, Compound concentration 10.0 uM
[6] = target: MAO-A (amine oxidase [flavin-containing] A) (Rattus norvegicus, UniProt P21396); assay: MAO-A_ANTAG Eurofins SafetyScreen44 (BI); design: scale not given: the % may be the effect or the level left; conditions: compound concentration 10 uM, read-out: % Ctrl
[7] = target: Glucocorticoid receptor (Homo sapiens) (UniProt P04150); assay: GCORTICOID/H Eurofins SafetyScreen44 (BI); conditions: Compound concentration 10.0 uM
[8] = target: Dual specificity mitogen-activated protein kinase kinase 2 (Homo sapiens) (UniProt P36507); assay: MAP2K2 Invitrogen Lab (UK) kinase screen (BI); conditions: Compound concentration 1.0 uM
[9] = target: D(4) dopamine receptor (Homo sapiens) (UniProt P21917); conditions: Compound concentration 10.0 uM
[10] = target: Platelet-derived growth factor receptor alpha (Homo sapiens) (UniProt P16234); assay: PDGFRA Invitrogen Lab (UK) kinase screen (BI); conditions: Compound concentration 1.0 uM
[11] = target: Mitogen-activated protein kinase 3 (Homo sapiens) (UniProt P27361); assay: MAPK3 Invitrogen Lab (UK) kinase screen (BI); conditions: Compound concentration 1.0 uM
[12] = target: 5-hydroxytryptamine receptor 2B (Homo sapiens) (UniProt P41595); conditions: Compound concentration 10.0 uM
[13] = target: Beta-2 adrenergic receptor (Homo sapiens) (UniProt P07550); assay: BETA2/HUM Eurofins SafetyScreen44 (BI); conditions: filed as antagonist, Compound concentration 10.0 uM
[14] = target: Dual specificity mitogen-activated protein kinase kinase 6 (Homo sapiens) (UniProt P52564); assay: MAP2K6 Invitrogen Lab (UK) kinase screen (BI); conditions: Compound concentration 1.0 uM
[15] = target: 5-hydroxytryptamine receptor 2A (Homo sapiens) (UniProt P28223); assay: 5HT2AH_AGON Eurofins SafetyScreen44 (BI); conditions: filed as agonist, Compound concentration 10.0 uM
[16] = target: Kappa-type opioid receptor (Homo sapiens) (UniProt P41145); assay: KAPPA(KOP)_HU Eurofins SafetyScreen44 (BI); conditions: Compound concentration 10.0 uM
Kappa-type opioid receptor (Homo sapiens), sequence (P41145 whole entry): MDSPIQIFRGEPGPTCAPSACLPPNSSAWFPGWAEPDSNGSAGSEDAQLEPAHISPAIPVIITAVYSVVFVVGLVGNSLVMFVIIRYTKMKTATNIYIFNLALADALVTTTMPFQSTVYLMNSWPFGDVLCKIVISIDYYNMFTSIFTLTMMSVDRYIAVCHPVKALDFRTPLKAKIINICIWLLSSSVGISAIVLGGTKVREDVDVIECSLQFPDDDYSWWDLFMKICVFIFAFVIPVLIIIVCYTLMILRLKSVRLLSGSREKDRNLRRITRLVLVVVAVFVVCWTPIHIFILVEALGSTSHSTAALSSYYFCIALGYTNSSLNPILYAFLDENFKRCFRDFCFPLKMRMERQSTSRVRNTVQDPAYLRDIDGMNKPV

5-hydroxytryptamine receptor 2B (Homo sapiens), sequence (P41595 whole entry): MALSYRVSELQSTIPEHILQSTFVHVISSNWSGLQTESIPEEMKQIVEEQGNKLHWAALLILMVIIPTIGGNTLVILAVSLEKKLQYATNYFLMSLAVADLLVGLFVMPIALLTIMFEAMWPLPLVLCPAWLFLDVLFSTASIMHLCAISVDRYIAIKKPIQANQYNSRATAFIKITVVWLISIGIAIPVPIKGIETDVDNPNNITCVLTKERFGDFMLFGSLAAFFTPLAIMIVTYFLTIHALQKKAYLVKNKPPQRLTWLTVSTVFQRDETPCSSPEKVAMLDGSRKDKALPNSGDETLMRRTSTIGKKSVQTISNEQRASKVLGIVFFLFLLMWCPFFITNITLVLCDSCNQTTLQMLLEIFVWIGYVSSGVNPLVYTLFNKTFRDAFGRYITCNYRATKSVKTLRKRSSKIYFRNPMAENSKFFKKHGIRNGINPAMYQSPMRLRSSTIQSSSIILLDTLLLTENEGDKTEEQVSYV
D(4) dopamine receptor (Homo sapiens), sequence (P21917 whole entry): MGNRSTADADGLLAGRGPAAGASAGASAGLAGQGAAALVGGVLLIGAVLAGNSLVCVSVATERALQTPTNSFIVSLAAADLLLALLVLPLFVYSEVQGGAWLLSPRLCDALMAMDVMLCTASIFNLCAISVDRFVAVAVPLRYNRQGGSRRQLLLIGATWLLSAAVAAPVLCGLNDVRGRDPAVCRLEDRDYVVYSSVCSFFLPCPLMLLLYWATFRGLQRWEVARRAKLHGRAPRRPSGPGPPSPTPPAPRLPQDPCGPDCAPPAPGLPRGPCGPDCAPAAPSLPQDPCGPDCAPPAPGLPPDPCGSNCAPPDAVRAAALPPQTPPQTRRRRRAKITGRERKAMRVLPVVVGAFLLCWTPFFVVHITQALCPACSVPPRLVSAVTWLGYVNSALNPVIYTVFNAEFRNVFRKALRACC
Endothelin-1 receptor (Homo sapiens), sequence (P25101 whole entry): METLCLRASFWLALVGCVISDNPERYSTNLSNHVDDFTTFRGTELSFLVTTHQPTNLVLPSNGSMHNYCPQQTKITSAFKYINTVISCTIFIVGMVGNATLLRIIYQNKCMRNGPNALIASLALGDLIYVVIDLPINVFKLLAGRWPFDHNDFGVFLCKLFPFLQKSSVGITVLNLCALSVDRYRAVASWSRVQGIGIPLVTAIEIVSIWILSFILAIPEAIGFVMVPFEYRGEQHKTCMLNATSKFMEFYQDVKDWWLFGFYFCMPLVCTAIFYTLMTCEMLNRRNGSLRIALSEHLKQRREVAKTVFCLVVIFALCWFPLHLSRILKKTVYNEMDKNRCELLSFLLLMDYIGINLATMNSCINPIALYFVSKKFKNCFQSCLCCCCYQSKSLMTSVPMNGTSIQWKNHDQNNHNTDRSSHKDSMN
Histamine H2 receptor (Homo sapiens), sequence (P25021 whole entry): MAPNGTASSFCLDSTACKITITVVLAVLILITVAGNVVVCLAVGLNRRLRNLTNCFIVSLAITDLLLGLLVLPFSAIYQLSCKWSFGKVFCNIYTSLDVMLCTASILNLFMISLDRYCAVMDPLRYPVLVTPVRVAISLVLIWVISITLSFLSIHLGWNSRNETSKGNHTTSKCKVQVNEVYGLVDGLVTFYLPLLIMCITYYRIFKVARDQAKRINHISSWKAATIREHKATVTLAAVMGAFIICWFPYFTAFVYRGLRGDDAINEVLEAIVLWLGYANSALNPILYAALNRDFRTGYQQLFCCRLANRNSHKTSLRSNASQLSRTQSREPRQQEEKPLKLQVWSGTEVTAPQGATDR
Dual specificity mitogen-activated protein kinase kinase 2 (Homo sapiens), sequence (P36507 whole entry): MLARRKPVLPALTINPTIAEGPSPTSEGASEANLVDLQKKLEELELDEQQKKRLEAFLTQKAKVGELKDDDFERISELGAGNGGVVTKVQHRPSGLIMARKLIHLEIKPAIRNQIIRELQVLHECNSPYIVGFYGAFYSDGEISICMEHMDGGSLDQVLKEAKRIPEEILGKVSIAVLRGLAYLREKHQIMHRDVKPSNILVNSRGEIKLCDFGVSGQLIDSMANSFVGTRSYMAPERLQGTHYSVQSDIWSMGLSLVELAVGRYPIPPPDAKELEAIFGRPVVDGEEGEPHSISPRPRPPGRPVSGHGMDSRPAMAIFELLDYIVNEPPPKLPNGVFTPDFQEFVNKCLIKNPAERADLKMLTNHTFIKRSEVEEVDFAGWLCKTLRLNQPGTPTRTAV
Dual specificity mitogen-activated protein kinase kinase 6 (Homo sapiens), sequence (P52564 whole entry): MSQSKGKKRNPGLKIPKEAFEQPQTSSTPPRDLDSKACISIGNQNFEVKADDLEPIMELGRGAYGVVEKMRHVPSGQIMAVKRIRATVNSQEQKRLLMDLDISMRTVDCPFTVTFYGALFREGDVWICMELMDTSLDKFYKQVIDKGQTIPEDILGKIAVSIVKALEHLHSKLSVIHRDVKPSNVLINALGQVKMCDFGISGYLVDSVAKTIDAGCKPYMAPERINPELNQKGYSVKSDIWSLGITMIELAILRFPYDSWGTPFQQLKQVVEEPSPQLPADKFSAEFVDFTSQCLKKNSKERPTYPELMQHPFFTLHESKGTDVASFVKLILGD
MAO-A (amine oxidase [flavin-containing] A), sequence (P21396 whole entry): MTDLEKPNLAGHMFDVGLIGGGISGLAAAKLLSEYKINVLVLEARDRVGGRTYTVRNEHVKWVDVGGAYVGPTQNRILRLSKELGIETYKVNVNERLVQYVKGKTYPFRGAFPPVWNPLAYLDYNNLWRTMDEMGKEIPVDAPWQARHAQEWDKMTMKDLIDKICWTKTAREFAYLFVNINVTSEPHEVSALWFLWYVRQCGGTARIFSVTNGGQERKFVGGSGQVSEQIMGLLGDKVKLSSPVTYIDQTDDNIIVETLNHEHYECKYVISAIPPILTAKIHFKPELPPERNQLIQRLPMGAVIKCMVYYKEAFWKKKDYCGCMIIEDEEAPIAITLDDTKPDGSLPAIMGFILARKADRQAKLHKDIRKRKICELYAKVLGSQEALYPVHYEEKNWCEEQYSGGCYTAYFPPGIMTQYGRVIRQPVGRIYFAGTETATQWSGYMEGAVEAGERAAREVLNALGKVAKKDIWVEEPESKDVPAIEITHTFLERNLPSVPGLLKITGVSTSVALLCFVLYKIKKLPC
Platelet-derived growth factor receptor alpha (Homo sapiens), sequence (P16234 whole entry): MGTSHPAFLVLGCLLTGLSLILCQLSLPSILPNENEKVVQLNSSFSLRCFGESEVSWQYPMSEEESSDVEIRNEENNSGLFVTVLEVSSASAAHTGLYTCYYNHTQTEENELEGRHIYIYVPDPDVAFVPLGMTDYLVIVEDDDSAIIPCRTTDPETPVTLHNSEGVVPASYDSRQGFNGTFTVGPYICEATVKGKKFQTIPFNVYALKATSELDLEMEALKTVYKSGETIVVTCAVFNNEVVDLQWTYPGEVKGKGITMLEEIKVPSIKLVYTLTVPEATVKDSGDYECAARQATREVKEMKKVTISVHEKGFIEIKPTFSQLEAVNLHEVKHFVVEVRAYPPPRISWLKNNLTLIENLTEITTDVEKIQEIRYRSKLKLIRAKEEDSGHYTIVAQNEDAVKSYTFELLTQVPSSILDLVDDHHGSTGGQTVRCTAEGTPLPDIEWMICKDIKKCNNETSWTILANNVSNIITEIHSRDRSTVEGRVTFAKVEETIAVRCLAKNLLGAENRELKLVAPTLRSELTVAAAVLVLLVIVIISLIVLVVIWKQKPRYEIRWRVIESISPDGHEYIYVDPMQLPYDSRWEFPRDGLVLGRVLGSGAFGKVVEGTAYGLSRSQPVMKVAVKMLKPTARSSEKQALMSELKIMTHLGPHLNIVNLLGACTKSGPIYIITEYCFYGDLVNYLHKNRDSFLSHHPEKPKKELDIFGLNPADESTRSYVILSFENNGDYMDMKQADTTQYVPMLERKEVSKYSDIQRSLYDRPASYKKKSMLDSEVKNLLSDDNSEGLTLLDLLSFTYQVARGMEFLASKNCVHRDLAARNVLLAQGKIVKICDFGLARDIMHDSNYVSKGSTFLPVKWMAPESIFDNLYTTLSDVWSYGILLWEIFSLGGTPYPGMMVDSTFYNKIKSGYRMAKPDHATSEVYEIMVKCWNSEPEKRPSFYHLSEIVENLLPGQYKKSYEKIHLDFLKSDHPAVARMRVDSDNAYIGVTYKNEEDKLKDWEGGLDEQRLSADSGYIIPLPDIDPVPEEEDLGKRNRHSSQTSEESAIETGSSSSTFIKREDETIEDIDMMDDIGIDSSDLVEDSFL
5-hydroxytryptamine receptor 2A (Homo sapiens), sequence (P28223 whole entry): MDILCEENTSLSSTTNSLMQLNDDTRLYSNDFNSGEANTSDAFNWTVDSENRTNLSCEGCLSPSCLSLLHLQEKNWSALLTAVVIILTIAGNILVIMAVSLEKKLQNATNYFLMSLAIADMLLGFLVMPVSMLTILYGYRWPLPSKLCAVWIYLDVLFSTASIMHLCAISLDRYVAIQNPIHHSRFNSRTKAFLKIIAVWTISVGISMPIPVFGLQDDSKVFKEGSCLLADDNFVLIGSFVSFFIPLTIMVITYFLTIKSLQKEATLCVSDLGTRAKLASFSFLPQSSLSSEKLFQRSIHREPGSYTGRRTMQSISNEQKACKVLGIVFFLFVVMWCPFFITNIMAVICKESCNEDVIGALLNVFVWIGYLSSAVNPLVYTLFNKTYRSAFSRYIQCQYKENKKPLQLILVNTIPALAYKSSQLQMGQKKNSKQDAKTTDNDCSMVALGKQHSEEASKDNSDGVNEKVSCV

residual activity [8]: 95%
inhibition [9]: 17.7%
residual activity [10]: 88%
residual activity [11]: 95%
inhibition [12]: -2.05%
residual activity [14]: 112%
SMILES: CNC(=O)COc1cc2cc(Nc3nc(N4CCC(C(=O)N(C)C)CC4)ncc3Cl)cc(OC)c2n(C)c1=O
residual activity [1]: 104%
residual activity [2]: 131%
residual activity [3]: 104%
residual activity [4]: 104%
residual activity [5]: 13%
activity at 10 µM [6]: 103% (not active)
residual activity [7]: 102%
residual activity [13]: 92%
residual activity [15]: 119%
residual activity [16]: 83%
